Experimental data from article PMC8285372, “Biochemical and functional characterization of mutant KRAS epitopes validates this oncoprotein for immunological targeting” (Nature Communications, 2021).
No end group written: not given here.

Assays:
HLA-A*11:01 [1] = biological target: T1, HLA-A*11:01 (Homo sapiens, UniProt P04439, A114D/D185E/E176A/F33Y/L180Q/S129P/T187R); test: fluorescence polarization competitive peptide-binding assay
HLA-A*03:01 [2] = biological target: T2, HLA-A*03:01 (Homo sapiens, UniProt P04439); test: as above
HLA-A*03:01 [3] = biological target: T2, HLA-A*03:01; test: p-HLA complex stability, scintillation proximity assay of β2-microglobulin dissociation; assay type: binding
HLA-A*11:01 [4] = biological target: T1, HLA-A*11:01; test: as above; assay type: binding
HLA-A*02:01 [5] = biological target: T3, HLA-A*02:01 (Homo sapiens, UniProt P04439, D140Y/D185E/D98H/E176V/E277Q/G131W/G231S/I119V/I121R/I166T/I218V/L300P/L318F/N151K/N90K/P208A/P217A/Q86G/Q94H/R138H/R169H/T345S); assay type: binding
HLA-B*07:02 [6] = biological target: T4, HLA-B*07:02 (Homo sapiens, UniProt P01889); test: fluorescence polarization competitive peptide-binding assay; settings: Experimental Affinity IC50
HLA-A*02:01 [7] = biological target: T3, HLA-A*02:01; test: as above
HLA-B*07:02 [8] = biological target: T4, HLA-B*07:02; assay type: binding

Sequence: ALLAVGATK [gp17-25]
- IC50 (HLA-A*11:01 [1]): 225 nM
- IC50 (HLA-A*03:01 [2]; Experimental Affinity IC50): 0.962 µM

Sequence: ALNTITNLK
- Experimental Stability (t1/2) Mean (HLA-A*03:01 [3]): 10.6 h
- Half_life, Setp #1 (HLA-A*03:01 [3]): 11.4 h
- Half_life, Setp #2 (HLA-A*03:01 [3]): 9.7 h
- k, Setp #1 (HLA-A*03:01 [3]): 0.061
- k, Setp #2 (HLA-A*03:01 [3]): 0.0711

Sequence: ASLPTTIAK
- Experimental Stability (t1/2) Mean (HLA-A*11:01 [4]): 22.5 h
- Half_life, Setp #1 (HLA-A*11:01 [4]): 23.8 h
- Half_life, Setp #2 (HLA-A*11:01 [4]): 21.1 h
- k, Setp #1 (HLA-A*11:01 [4]): 0.0291
- k, Setp #2 (HLA-A*11:01 [4]): 0.0328

Sequence: FLIDLAFLI
- Experimental Stability (t1/2) Mean (HLA-A*02:01 [5]): 10.1 h
- Half_life, Setp #1 (HLA-A*02:01 [5]): 11 h
- Half_life, Setp #2 (HLA-A*02:01 [5]): 9.2 h
- k, Setp #1 (HLA-A*02:01 [5]): 0.063
- k, Setp #2 (HLA-A*02:01 [5]): 0.0751

Sequence: GAGGVGKSAL [Peptide 10-19]
- IC50 (HLA-B*07:02 [6]): 76.9 µM

Sequence: GRAFVTIGK
- IC50 (HLA-B*07:02 [6]): 0.371 µM

Sequence: KITDFGIAK [HLA-A*11:01 control, Serine/threonine-protein kinase PknA, Mycobacterium tuberculosis, IEDB 109407]
- Experimental Stability (t1/2) Mean (HLA-A*11:01 [4]): 15.6 h
- Half_life, Setp #1 (HLA-A*11:01 [4]): 16.7 h
- Half_life, Setp #2 (HLA-A*11:01 [4]): 14.6 h
- k, Setp #1 (HLA-A*11:01 [4]): 0.0415
- k, Setp #2 (HLA-A*11:01 [4]): 0.0476

Sequence: KLAQRRVFH
- Experimental Stability (t1/2) Mean (HLA-A*03:01 [3]): 3.5 h
- Half_life, Setp #1 (HLA-A*03:01 [3]): 3.5 h
- Half_life, Setp #2 (HLA-A*03:01 [3]): 3.6 h
- k, Setp #1 (HLA-A*03:01 [3]): 0.2008
- k, Setp #2 (HLA-A*03:01 [3]): 0.1902

Sequence: KLVVVGAGGV [Peptide 5-14]
- IC50 (HLA-A*02:01 [7]): 10.9 µM

Sequence: KLVVVGARGV [Peptide 5-14R]
- IC50 (HLA-A*02:01 [7]): 20.7 µM

Sequence: RLARAIIEL [HLA-A*02:01 control, Genome polyprotein, West Nile virus, IEDB 54476]
- Experimental Stability (t1/2) Mean (HLA-A*02:01 [5]): 3 h
- Half_life, Setp #1 (HLA-A*02:01 [5]): 3.3 h
- Half_life, Setp #2 (HLA-A*02:01 [5]): 2.8 h
- k, Setp #1 (HLA-A*02:01 [5]): 0.2104
- k, Setp #2 (HLA-A*02:01 [5]): 0.2479

Sequence: RPIDDRFGL
- Experimental Stability (t1/2) Mean (HLA-B*07:02 [8]): 3.2 h
- Half_life, Setp #1 (HLA-B*07:02 [8]): 4 h
- Half_life, Setp #2 (HLA-B*07:02 [8]): 2.5 h
- k, Setp #1 (HLA-B*07:02 [8]): 0.174
- k, Setp #2 (HLA-B*07:02 [8]): 0.2746

Sequence: RPIDDRFGLAL
- Experimental Stability (t1/2) Mean (HLA-B*07:02 [8]): 1.1 h
- Half_life, Setp #1 (HLA-B*07:02 [8]): 1.2 h
- Half_life, Setp #2 (HLA-B*07:02 [8]): 1.1 h
- k, Setp #1 (HLA-B*07:02 [8]): 0.5749
- k, Setp #2 (HLA-B*07:02 [8]): 0.6051

Sequence: RVKLSALTLK
- Experimental Stability (t1/2) Mean (HLA-A*03:01 [3]): 12.3 h
- Half_life, Setp #1 (HLA-A*03:01 [3]): 11.6 h
- Half_life, Setp #2 (HLA-A*03:01 [3]): 13.1 h
- k, Setp #1 (HLA-A*03:01 [3]): 0.0597
- k, Setp #2 (HLA-A*03:01 [3]): 0.053

Sequence: SPRERLVLTL
- Experimental Stability (t1/2) Mean (HLA-B*07:02 [8]): 1 h
- Half_life, Setp #1 (HLA-B*07:02 [8]): 1.1 h
- Half_life, Setp #2 (HLA-B*07:02 [8]): 0.9 h
- k, Setp #1 (HLA-B*07:02 [8]): 0.6505
- k, Setp #2 (HLA-B*07:02 [8]): 0.7477

Sequence: TVNPIVTEK [HLA-A*11:01 control, Genome polyprotein, Dengue virus, IEDB 67094]
- Experimental Stability (t1/2) Mean (HLA-A*11:01 [4]): 11.4 h
- Half_life, Setp #1 (HLA-A*11:01 [4]): 11.8 h
- Half_life, Setp #2 (HLA-A*11:01 [4]): 11 h
- k, Setp #1 (HLA-A*11:01 [4]): 0.0587
- k, Setp #2 (HLA-A*11:01 [4]): 0.0631

Sequence: VLWDIPTPK
- Experimental Stability (t1/2) Mean (HLA-A*11:01 [4]): 8 h
- Half_life, Setp #1 (HLA-A*11:01 [4]): 8.4 h
- Half_life, Setp #2 (HLA-A*11:01 [4]): 7.5 h
- k, Setp #1 (HLA-A*11:01 [4]): 0.0825
- k, Setp #2 (HLA-A*11:01 [4]): 0.093
- Experimental Stability (t1/2) Mean (HLA-A*03:01 [3]): 4.7 h
- Half_life, Setp #1 (HLA-A*03:01 [3]): 4.5 h
- Half_life, Setp #2 (HLA-A*03:01 [3]): 4.9 h
- k, Setp #1 (HLA-A*03:01 [3]): 0.1534
- k, Setp #2 (HLA-A*03:01 [3]): 0.1427

Sequence: VVGARGVGK [Peptide 8-16R]
- IC50 (HLA-A*11:01 [1]): 634 nM
- IC50 (HLA-A*03:01 [2]; Experimental Affinity IC50): 5.3 µM

Sequence: VVVGARGVGK [Peptide 7-16R]
- IC50 (HLA-A*11:01 [1]): 566 nM
- IC50 (HLA-A*03:01 [2]; Experimental Affinity IC50): 3.24 µM
- IC50 (HLA-A*03:01 [2]; Experimental Affinity log10[IC50]): ≤ 0.00359 µM
